The values below are quoted from earlier work in patent publication US9695131B2, “Substituted uracils as chymase inhibitors” (Bayer Pharma Aktiengesellschaft, priority 2013, dated 2017).

The subject of this data set is hamsters with myocardial infarction.

In the case of `CCOc1ccccc1CC1C(=O)N(C(=O)NC(c2ccc(C)cc2)c2ccc(C)cc2)C1Oc1ccc(C(=O)O)cc1` (stereo not drawn) [BCEAB], the chymase activity result is on record as “reduced”, the haemodynamics result was “improved” and the mortality entry is listed as “reduced”.
